Consider 23 compounds from ChEMBL document CHEMBL1130041, “Halogenated 4-(phenoxymethyl)piperidines as potential radiolabeled probes for sigma-1 receptors: in vivo evaluation of [123I]-1-(iodopropen-2-yl)-4-[(4-cyanophenoxy)methyl]pip eri dine” (J Med Chem, 1997).

Series [1] can be described thus: In Vitro binding affinity for 5-hydroxytryptamine 2 receptor.
Series [2] in a line: Partition coefficient (logP). The series is classed as physicochemical. Conditions: octanol/water.
Series [3] can be described thus: (§1) Ki ratio measured as Ki of sigma-2 receptor to that of sigma-1 receptor.
Series [4] addresses Sigma 2 receptor. The series is described as follows: In vitro for binding affinity at sigma-2 receptor by measuring its ability to displace [3H]DTG from guinea pig membranes. Set-up: species or system Cavia porcellus.
For series [5], the target named is T1, Sigma non-opioid intracellular receptor 1 (Homo sapiens, UniProt Q99720). The series is described as follows: Receptor binding affinity against Sigma receptor.
T1 sequence (Q99720 whole entry): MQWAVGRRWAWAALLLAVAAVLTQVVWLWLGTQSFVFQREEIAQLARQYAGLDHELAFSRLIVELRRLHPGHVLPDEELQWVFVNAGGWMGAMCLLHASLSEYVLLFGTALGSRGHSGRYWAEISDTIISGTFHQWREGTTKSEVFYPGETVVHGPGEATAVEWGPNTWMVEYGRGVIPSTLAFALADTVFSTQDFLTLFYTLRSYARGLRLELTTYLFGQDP
Series [6] deals with D(2) dopamine receptor (Homo sapiens, UniProt P14416). Description: In vitro binding affinity for Dopamine receptor D2.
Sequence of D(2) dopamine receptor (P14416 whole entry): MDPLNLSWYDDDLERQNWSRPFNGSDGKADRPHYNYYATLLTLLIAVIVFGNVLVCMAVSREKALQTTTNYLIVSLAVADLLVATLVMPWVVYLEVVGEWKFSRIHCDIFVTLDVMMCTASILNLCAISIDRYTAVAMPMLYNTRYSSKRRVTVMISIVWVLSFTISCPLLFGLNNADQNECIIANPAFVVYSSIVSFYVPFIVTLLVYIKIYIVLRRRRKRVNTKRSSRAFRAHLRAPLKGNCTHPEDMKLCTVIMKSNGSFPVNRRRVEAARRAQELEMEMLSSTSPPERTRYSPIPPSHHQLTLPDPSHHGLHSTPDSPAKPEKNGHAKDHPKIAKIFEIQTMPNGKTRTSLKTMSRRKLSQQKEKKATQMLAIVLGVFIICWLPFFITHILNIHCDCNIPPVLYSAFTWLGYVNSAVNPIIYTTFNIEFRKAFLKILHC
For series [7], the target named is T1, Sigma non-opioid intracellular receptor 1. Description: Ki ratio measured as Ki of sigma-2 receptor to that of sigma-1 receptor. The following applies: Cavia porcellus.
The species entered for series [8] is Rattus norvegicus. Description: Blockade of uptake of the radiotracer in posterior cortex. The series is classed as functional.
Series [9] addresses T1, Sigma non-opioid intracellular receptor 1. Described as §1. Conditions: Cavia porcellus.
In series [10] the target is Sigma 2 receptor. Description: Receptor binding affinity against Sigma-2 receptor from guinea pig membranes. Set-up: species or system Cavia porcellus.
The species named for series [11] is Rattus norvegicus. The series is described as follows: Blockade of uptake of the radiotracer in posterior cortex of rat. The format is functional.

Take `Fc1cccc(CN2CCC(COc3c(F)c(F)c(F)c(F)c3F)CC2)c1`: the Ki in series [1] is > 10 µM; in series [4], 25 nM. Moreover, the logP in [2] is 4.72. Besides, the Ratio in [3] came to 7.48.
Consider `O=[N+]([O-])c1ccc(OCC2CCN(CC3CC3)CC2)cc1`, for which the Ki is > 0.2 µM in series [1] and 13 nM in series [5].
`N#Cc1ccc(OCC2CCN(CCF)CC2)cc1`: the Ki in series [1] is > 10 µM; in series [6] it was > 10 µM; in series [4], 361 nM. Further, in [2], the logP came out at 2.42. The Ratio in series [3] was 14.9.
In [1], `O=C(CC1CCN(CC2CC2)CC1)c1ccc(F)cc1` gave a Ki of 0.015 µM.
For `N#Cc1ccc(OCC2CCN(Cc3ccc(F)cc3)CC2)cc1`, the Ki in [1] was > 10 µM; in series [6], > 10 µM; in series [4] it was 5.2 nM. Also, the Ratio in series [7] was 6.84. Further, in [2], the logP worked out at 3.22.
For `FCCCN1CCC(COc2c(F)c(F)c(F)c(F)c2F)CC1`, the Ki was > 10 µM in series [1] and 5.3 nM in series [4]. Besides, the logP in series [2] is 4.11. Also, the Ratio in series [3] worked out at 2.05.
As for `N#Cc1ccc(OCC2CCN(CC3CC3)CC2)cc1`, the Ki is > 0.2 µM in series [1] and 10 nM in series [5].
On to `Brc1cccc(OCC2CCN(CC3CC3)CC2)c1`, for which the inhibition constant (Ki) is > 10 µM in [1], > 10 µM in series [6] and 9.9 nM in series [4]. In [2], this compound displayed a logP of 6.36. Further, the Ratio in [3] turned out to be 11.3.
`N#Cc1ccc(OCC2CCN(Cc3ccccc3Br)CC2)cc1`: the Ki in [1] is > 1 µM; in series [4], 31.1 nM. In [2], this compound displayed a logP of 4.09. The Ratio in series [3] amounted to 15.4.
As for `N#Cc1ccc(OCC2CCN(Cc3ccccc3I)CC2)cc1`, the figures for the Ki in series [1] and in series [4] were > 1 µM and 93.6 nM, respectively. The logP in series [2] was determined as 4.3. Moreover, in series [3], the Ratio was found to be 10.1.
`CC(C)=CCN1CC[C@]2(C)c3cc(O)ccc3C[C@H]1[C@H]2C` (single isomer, unassigned) [(+)-PENTAZOCINE] registered a Blockade in series [8] of 84%.
`N#Cc1ccccc1CN1CCC(COc2ccc(I)cc2)CC1`: the values for the Ki in series [1] and in [4] were > 1 µM and 142 nM, respectively. In addition, in series [2], the logP was 4.32. The Ratio in series [3] was determined as 13.5.
As for `OCCN1CCC(COc2ccc(I)cc2)CC1`, the values for the Ki in series [1], in series [6] and in series [4] were > 10 µM, > 10 µM and 139 nM, respectively. In series [2], the logP was found to be 3.8. Also, the Ratio in [3] was 60.4.
As for `FCCCN1CCC(COc2ccc(Br)cc2)CC1`, the values for the Ki in series [1], in [6] and in series [4] were > 10 µM, > 10 µM and 13.1 nM, respectively. The same compound showed a logP in series [2] of 5.88. Also, the Ratio in series [3] worked out at 34.5.
Turning to `O=[N+]([O-])c1ccc(OCC2CCN(Cc3ccc(F)cc3)CC2)cc1`, the values for the Ki in [1], in series [6] and in series [10] were > 10 µM, > 10 µM and 3.9 nM, respectively. This compound came in with a logP in series [2] of 3.62. For the same compound, in series [9], the Ratio turned out to be 3.25.
Consider `N#Cc1ccc(OCC2CCN(CCCF)CC2)cc1`, for which the Ki in [1] is > 10 µM; in series [6] it was > 10 µM; in series [4], 144 nM. Further, the logP in series [2] was determined as 2.93.
Take `Fc1ccc(CN2CCC(COc3c(F)c(F)c(F)c(F)c3F)CC2)cc1`: the Ki in series [1] was > 10 µM; in series [4], 4.3 nM. The Ratio in series [3] came to 1.17.
Regarding `FCCN1CCC(COc2ccc(I)cc2)CC1`, the values for the Ki in series [1], in [6] and in [4] were > 10 µM, > 10 µM and 102 nM, respectively. In [2], this compound registered a logP of 4.02. The Ratio in [3] was 121.
With `O=C(CCCN1CCC(O)(c2ccc(Cl)cc2)CC1)c1ccc(F)cc1` [HALOPERIDOL], the Blockade in [11] is recorded as 91%.
Regarding `Ic1ccc(OCC2CCN(CC3CC3)CC2)cc1`, the Ki was > 10 µM in series [1], > 10 µM in series [6] and 11.7 nM in [4]. In series [2], this compound had a logP of 6.67. In series [3], the Ratio stood at 23.4.
For the compound `Fc1c(F)c(F)c(CN2CCC(COc3c(F)c(F)c(F)c(F)c3F)CC2)c(F)c1F`, the values for the Ki in series [1] and in series [4] were > 10 µM and > 1000 nM, respectively.
With `N#Cc1cccc(CN2CCC(COc3ccc(I)cc3)CC2)c1`, the Ki in [1] was > 1 µM; in series [4] it was 69.5 nM. Also, in series [2], the logP is 4.19. In addition, the Ratio in series [3] turned out to be 24.
As for `Brc1ccc(OCC2CCN(CC3CC3)CC2)cc1`, the values for the Ki in series [1], in [6] and in series [4] were > 10 µM, > 10 µM and 13.6 nM, respectively. For the same compound, the logP in series [2] was determined as 6.22. For the same compound, the Ratio in series [3] is 22.7.
